According to patent US12691087B2, “Method of enhancing glucose levels in the central nervous system” (THE INSTITUTE FOR ETHNOMEDICINE, priority 2018, dated 2026):

Key:
[1] = Glucose in cerebral spinal fluid of vervets fed L-serine; type: in vivo, vervets (Chlorocebus pygerythrus)
Description: […]. These were compared to four control vervets who were fed daily control doses of 651 mg/day of rice powder for 42 days.
Cerebral spinal fluid samples were taken during the experiment. The cerebral spinal fluid samples from vervets fed L-serine were compared to cerebral spinal fluid samples from control vervets at 42 days.
Frozen cerebral spinal fluid (CSF) was prepared using equal volumes of CSF and 20% w/v TCA. The combined volume was sonicated (Fisher Scientific Sonic Dismembrator, Model 100) on ice at 2 watts (10 s×3) and left to precipitate at room temperature for 30 minutes. The sample was then centrifuged (Labnet Spectrafuge 16M) at 14,000 g for 5 min. […]
CSF extracts were analyzed on a TSQ Quantiva (Thermo Scientific) triple quadrupole mass spectrometer with an Ultra High Pressure Liquid Chromatography (Waters Acquity-UHPLC) system equipped with a Binary Solvent Manager, Sample Manager, and an Acquity UPLC BEH Amide column (#186004801, 100×2.1 mm, 1.7 μm) at 50° C. […]
The mass spectrometer was operated with a heated electrospray ionization (H-ESI) probe and sheath gas pressure set to 40 (Arb), aux gas set to 2 (Arb), and sweep gas set to 1 (Arb). Samples were analyzed in negative ion mode with a vaporizer temperature of 350° C., capillary temperature of 130° C., and spray voltage 2800v. […]

[2] = test system: human neuroblastoma cells (SH-SY5Y); assay: Glucose synthesis by SH-SY5Y cells given L-serine (Amplex Red Glucose Assay, culture medium); type: cell-based; settings: 100, 200 and 500 mM L-serine; 0, 24 and 48 hrs; medium deficient in glucose
Description: Cell Culture: SH-SY5Y human neuroblastoma (PD19, […]) were cultured in 150 cm^2 flasks in Dulbecco's Modified Eagle's Medium/Nutrient F-12 Ham (Sigma-Aldrich, Cat. No. D8437) containing 10% fetal bovine serum (FBS), 4 mM L-glutamine, 100 U/mL penicillin, and 100 μg/mL streptomycin at 37° C. (Complete Medium) in a humidified atmosphere of 5% CO2 and 95% air. At between 70 and 90% confluence, the cells were trypsinized with 0.5% Trypsin-EDTA (Thermo Fisher, Cat. No. 15400054) and then 2.5×10^5 cells/well plated in twenty-four-well plates and allowed to adhere overnight (PD22). The following day, the cell culture medium was aspirated, and the cells were washed three times in warm […] Hanks buffered salt solution (HBSS). […] Glucose concentrations were measured using the Amplex® Red Glucose/Glucose Oxidase Assay Kit (Invitrogen). […] Fluorescence was read at excitation 540 nm and emission […] in SoftMax Pro version 7.0.2 on a Molecular Devices Flexstation 3. Glucose concentrations in the samples were calculated from the standard curve. […] Human neuroblastoma cells were incubated in medium deficient in glucose and L-serine, but supplemented with increasing concentrations of L-[…], 200 and 500 mM) for 0, 24 and 48 hrs, then glucose concentrations in the culture medium measured using the Amplex® Red Glucose Assay (Invitrogen).

[3] = Storage stability of L-serine; type: physicochemical; settings: 24 month storage, room temperature (<30° C.), relative humidity <75%
[4] = Randomized, placebo-controlled double-blinded study of cognitive ability in healthy post-menopausal women (Rey Auditory Verbal Learning Test); type: in vivo, human; settings: 15 g/day for 60 days
Text: This Example describes a nutritional experiment conducted on post-menopausal women. The study was designed to determine if dietary supplementation with L-[…] grams/day) improves cognitive ability in healthy women when administered over a 60-day period. Forty-eight women ages 55 years, who had not been diagnosed with mild cognitive impairment, probable dementia, or Alzheimer's disease participated as volunteers in this randomized, placebo-controlled double-blinded study. Forty-three women completed the study. Cognitive abilities of each participant were assessed in several different cognitive domains by using the NIH toolbox (Gershon et al, 2013) on an I-Pad, founded on earlier test procedures developed by Atkinson and […] (1968). Cognitive tests included the Rey Auditory Verbal Learning Test which broadly assesses short-term auditory and verbal learning (King et al. 1998). For example, in one test participants were presented 15 unrelated words and asked to repeat them again after 30 minutes. The cognitive assessment was administered to participants at the beginning and the end of the sixty-day study period. The assessment procedure lasted 45 minutes for each individual. L-serine gummies, each at 2.2 grams total weight, and each containing 1.0 grams of L-serine were manufactured in a cGMP FDA-compliant facility by […]). Placebo gummies were manufactured in a similar manner. […] The gummies were placed in sealed foil packets, each packet containing 15 gummies. Microbiological analysis indicated the gummies to be free of bacterial contamination. The materials used for packaging were manufactured by ESP Packaging LLC (Costa Mesa, CA). Each individual foil packet was labeled with a lot number containing the Julian code date. […] The differences between the beginning and end score for each participant in the L-serine treatment and placebo treatment groups were evaluated using a Wilcoxon-Mann-Whitney test with p<0.05 as the significance level. […]

[5] = Case study of a person with GLUT1 deficiency; type: in vivo, human; settings: 30 grams per day oral, single patient
Text: Evidence for the efficacy of L-serine therapy for glucose deficiency syndrome is supported by a case-study of a person (“the patient”) who suffered ataxia, developmental impairment, reduced social interaction, and fine motor skill deficits as a result of their GLUT1 deficiency. In subjects suffering from glucose deficiency syndrome, there is insufficient glucose transported across the brain to allow proper functioning of brain cells. Since L-serine is transported through a different mechanism across the blood brain barrier, it is possible to increase intracranial glucose concentrations through administration of high doses of L-serine. The patient was administered 30 grams of L-serine per day by oral administration.

[6] = up to 30 g/day over a six-month period; 20 ALS patients; cited from earlier work

N[C@@H](CO)C(=O)O [L-serine]
increase of glucose levels versus control vervets ([1]; 651 mg/day oral for 42 days, significant at p<0.005): great than doubling
median level of glucose in CSF ([1]; vervets fed 651 mg/day L-serine for 42 days, CSF at 42 days, control 24 mg/100 ml, p<0.005): 58 mg/100 ml
glucose concentration in the culture medium compared to Control (0 mM L-serine) [2]: No significant increase
changes in optical rotation or purity on storage [3]: No significant changes
stability on storage [3]: extraordinarily stable
delayed list recall ([4]; did not achieve statistical significance): trend towards improvement
mean improvement on the Rey Auditory Verbal Learning Test ([4]; final minus beginning score, placebo 4.0): 7.9
improvement in learning ability (Rey Auditory Verbal Learning Test) compared to the placebo group ([4]; p<0.01): 98%
fine motor skills, including handwriting [5]: improved fine motor skills
social interaction [5]: improved social interaction
patient's condition (ability to ride a bicycle and carry cargo) ([5]; within several weeks): rapid improvement
safety [6]: safe
